Experimental data as given in ChEMBL document CHEMBL5528002, “Identification of selective 5-LOX and FLAP inhibitors as novel anti-inflammatory agents by ligand-based virtual screening” (Eur J Med Chem, 2024).
Activity calls are given as the source filed them. The rule behind the calls is not given here.

How the values were obtained:
[1] = biological target: T1, Bifunctional epoxide hydrolase 2 (Homo sapiens) (UniProt P34913); assay: Inhibition of human sEH at 10 uM relative to control
T1 sequence (whole entry): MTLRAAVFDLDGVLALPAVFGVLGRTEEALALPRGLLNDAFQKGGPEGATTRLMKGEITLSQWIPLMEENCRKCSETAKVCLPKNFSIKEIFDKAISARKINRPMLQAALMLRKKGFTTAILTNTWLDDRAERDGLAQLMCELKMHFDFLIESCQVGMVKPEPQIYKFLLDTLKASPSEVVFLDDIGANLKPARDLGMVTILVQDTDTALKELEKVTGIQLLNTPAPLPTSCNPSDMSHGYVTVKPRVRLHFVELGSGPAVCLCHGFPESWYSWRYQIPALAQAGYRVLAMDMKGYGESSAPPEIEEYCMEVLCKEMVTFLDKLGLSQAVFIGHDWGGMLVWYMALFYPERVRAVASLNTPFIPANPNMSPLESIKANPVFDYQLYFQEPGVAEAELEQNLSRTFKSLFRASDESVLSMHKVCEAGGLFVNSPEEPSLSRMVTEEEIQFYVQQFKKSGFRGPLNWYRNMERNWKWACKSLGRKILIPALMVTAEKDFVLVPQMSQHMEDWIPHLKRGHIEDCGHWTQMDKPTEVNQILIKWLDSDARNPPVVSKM

[2] = biological target: T2, Polyunsaturated fatty acid 5-lipoxygenase (Homo sapiens) (UniProt P09917); assay: Inhibition of human recombinant 5-LOX expressed in Escherichia coli BL21(DE3) assessed as enzyme remaining activity at 10 uM using arachidonic acid as substrate preincubated with compound for 15 mins followed by substrate and CaCl2 addition measured after 10 mins by RP-HPLC analysis relative to control; conditions: time 25.0 min
T2 sequence (whole entry): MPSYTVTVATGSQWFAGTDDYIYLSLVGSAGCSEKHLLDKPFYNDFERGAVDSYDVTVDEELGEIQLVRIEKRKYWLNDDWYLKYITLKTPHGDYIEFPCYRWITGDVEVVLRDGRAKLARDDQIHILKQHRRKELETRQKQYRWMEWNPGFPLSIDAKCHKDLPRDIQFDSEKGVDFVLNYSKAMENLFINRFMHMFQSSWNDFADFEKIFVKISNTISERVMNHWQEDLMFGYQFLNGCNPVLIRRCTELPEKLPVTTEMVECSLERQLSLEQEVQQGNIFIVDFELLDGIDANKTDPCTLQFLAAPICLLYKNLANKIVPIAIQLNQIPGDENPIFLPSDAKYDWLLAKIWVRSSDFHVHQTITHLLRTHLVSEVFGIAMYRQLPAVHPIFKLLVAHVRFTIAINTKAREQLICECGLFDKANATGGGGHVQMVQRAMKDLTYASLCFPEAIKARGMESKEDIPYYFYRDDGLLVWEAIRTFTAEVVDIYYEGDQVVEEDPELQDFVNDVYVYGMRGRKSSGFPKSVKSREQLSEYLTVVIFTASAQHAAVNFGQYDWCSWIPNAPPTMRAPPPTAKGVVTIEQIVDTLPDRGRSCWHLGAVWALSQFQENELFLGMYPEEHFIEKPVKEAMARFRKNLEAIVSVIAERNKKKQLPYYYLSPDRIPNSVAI

[3] = biological target: T2, Polyunsaturated fatty acid 5-lipoxygenase (Homo sapiens); assay: Inhibition of 5-LOX in human Neutrophil assessed as enzyme remaining activity at 10 uM preincubated with compound for 15 mins followed by A23187 addition measured after 10 mins by RP-HPLC analysis relative to control; type: cell-based; conditions: time 25.0 min
[4] = biological target: T3, Prostaglandin E synthase (Homo sapiens) (UniProt O14684); assay: Inhibition of human mPGES-1 at 10 uM relative to control
T3 sequence (whole entry): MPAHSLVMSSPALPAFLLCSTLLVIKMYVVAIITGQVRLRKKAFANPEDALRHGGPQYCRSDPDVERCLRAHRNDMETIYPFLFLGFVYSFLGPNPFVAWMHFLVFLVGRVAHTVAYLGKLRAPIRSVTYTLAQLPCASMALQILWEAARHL

[5] = biological target: T2, Polyunsaturated fatty acid 5-lipoxygenase (Homo sapiens); assay: Inhibition of 5-LOX in human Neutrophil at 10 uM preincubated with compound for 15 mins followed by A23187 addition measured after 10 mins by RP-HPLC analysis relative to control; type: cell-based; conditions: time 25.0 min
[6] = biological target: T1, Bifunctional epoxide hydrolase 2 (Homo sapiens); assay: Inhibition of human sEH assessed as enzyme remaining activity at 10 uM relative to control
[7] = biological target: T2, Polyunsaturated fatty acid 5-lipoxygenase (Homo sapiens); assay: Inhibition of 5-LOX in human Neutrophil assessed as enzyme remaining activity at 10 uM using arachidonic acid as substrate preincubated with compound for 15 mins followed by substrate and A23187 addition measured after 10 mins by RP-HPLC analysis relative to control; type: cell-based; conditions: time 25.0 min
Neutrophil [8] = assay: Inhibition of ROS production in PMA-induced human Neutrophil cells at 10 uM incubated for 10 mins by DCFH-DA dye based fluorometric assay; type: functional, cell-based
[9] = Antioxidant activity assessed as DPPH radical scavenging activity at 10 uM incubated for 30 min by DPPH assay; type: functional
[10] = biological target: T2, Polyunsaturated fatty acid 5-lipoxygenase (Homo sapiens); assay: Inhibition of 5-LOX in human Neutrophil at 10 uM using arachidonic acid as substrate preincubated with compound for 15 mins followed by substrate and A23187 addition measured after 10 mins by RP-HPLC analysis relative to control; type: cell-based; conditions: time 25.0 min
[11] = biological target: T3, Prostaglandin E synthase (Homo sapiens); assay: Inhibition of human mPGES-1 assessed as enzyme remaining activity at 10 uM relative to control
[12] = Antioxidant activity assessed as DPPH radical scavenging activity at 1 uM incubated for 30 min by DPPH assay; type: functional
Neutrophil [13] = assay: Inhibition of ROS production in PMA-induced human Neutrophil cells at 1 uM incubated for 10 mins by DCFH-DA dye based fluorometric assay; type: functional, cell-based
[14] = biological target: T2, Polyunsaturated fatty acid 5-lipoxygenase (Homo sapiens); assay: Inhibition of 5-LOX in human Neutrophil assessed as enzyme remaining activity at 30 nM preincubated with compound for 15 mins followed by A23187 addition measured after 10 mins by RP-HPLC analysis relative to control; type: cell-based; conditions: time 25.0 min
[15] = biological target: T2, Polyunsaturated fatty acid 5-lipoxygenase (Homo sapiens); assay: Inhibition of 5-LOX in human Neutrophil assessed as enzyme remaining activity at 30 nM using arachidonic acid as substrate preincubated with compound for 15 mins followed by substrate and A23187 addition measured after 10 mins by RP-HPLC analysis relative to control; type: cell-based; conditions: time 25.0 min
[16] = biological target: T4, Polyunsaturated fatty acid 5-lipoxygenase (Homo sapiens, UniProt P09917); assay: Inhibition of human recombinant 5-LOX expressed in Escherichia coli BL21(DE3) using arachidonic acid as substrate preincubated with compound for 15 mins followed by substrate and CaCl2 addition measured after 10 mins by RP-HPLC analysis
T4 sequence (P09917 whole entry): T2 sequence (whole entry)

[17] = biological target: T4, Polyunsaturated fatty acid 5-lipoxygenase; assay: Inhibition of 5-LOX in human Neutrophil using arachidonic acid as substrate preincubated with compound for 15 mins followed by substrate and A23187 addition measured after 10 mins by RP-HPLC analysis; type: cell-based

| Structure (SMILES) | inhibition [1] [%] | Activity [2] [%] | Activity [3] [%] | inhibition [4] | inhibition [5] | Activity [6] [%] | Activity [7] [%] | inhibition (Neutrophil [8]) | Activity [9] | inhibition [10] | Activity [11] [%] | Activity [12] | inhibition (Neutrophil [13]) | Activity [14] [%] | Activity [15] [%] | IC50 [16] [nM] | IC50 [17] [nM] |
| --- | --- | --- | --- | --- | --- | --- | --- | --- | --- | --- | --- | --- | --- | --- | --- | --- | --- |
| CC(=O)NC(CCc1ccc(Cl)c(Cl)c1)c1cccc(O)c(=O)c1 (configuration not stated) | > 35 | 5.3 | 34.5 | inactive | > 50% | 66.2 | 49.5 | inactive | inactive | > 50% | 102 | inactive | inactive |  |  |  |  |
| Nc1nc(N)c2cc([S+]([O-])c3ccc4ccccc4c3)ccc2n1 (configuration not stated) | > 35 | 94.6 | 62 | inactive | 37% | 93.9 | 82.1 |  |  | inactive | 88.3 |  |  |  |  |  |  |
| O=C1NC(=O)C(CCC(=O)c2ccc3ccccc3c2)C(=O)N1 | > 35 | 86.1 | 63.3 | inactive | 37% | 83.3 | 94.8 |  |  | inactive | 77.5 |  |  |  |  |  |  |
| CC(C)c1ccc2c(c1)c(SC(C)(C)C)c(CC(C)(C)C(=O)O)n2Cc1ccc(Cl)cc1 |  |  |  |  |  |  |  |  |  |  | 45.8 |  |  | 1.5 | 7.8 |  |  |
| Oc1nc(Cc2ccc3ccccc3n2)cc(-c2ccccc2)n1 | > 35 | 68.1 | 53.9 | inactive | 37% | 91.6 | 111 |  |  | inactive | 55.8 |  |  |  |  |  |  |
| N=C1OC(c2c[nH]c3ccc(OCc4ccccc4)cc23)C(O)=C1O (configuration not stated) | > 35 | 95 | 56.1 | < 40% | 37% | 86.7 | 92.3 |  |  | inactive | 56.8 |  |  |  |  |  |  |
| O=C1Nc2ccccc2/C1=N\CCc1c[nH]c2ccccc12 | > 35 | 69.1 | 73.5 | > 50% | inactive | 92.8 | 42.8 |  |  | Active | 30.4 |  |  |  |  |  |  |
| CC(=O)c1cccc2cc(CC(=O)c3ccccc3)c(=O)oc12 | > 35 | 105 | 81.6 | < 40% | inactive | 79.7 | 94.9 |  |  |  | 59 |  |  |  |  |  |  |
| CC(=O)NC(CC(=O)Nc1cccc2c1Cc1ccccc1-2)C(=O)O (configuration not stated) | > 35 | 107 | 94.2 | inactive | inactive | 81 | 102 |  |  |  | 96.3 |  |  |  |  |  |  |
| COC(=O)c1ccc(NCc2cc(O)c3ccccc3c2O)cc1 | > 35 | 6.1 | 3.3 | < 40% | > 50% | 84.4 | 1.9 | Active | Active | > 50% | 50.4 | inactive | inactive |  |  | 1100 | 1000 |
